# Measured values: publication PMC5926251 (Japanese Journal of Cancer Research : Gann, 2000)
# Values joined by “and” are separate entries in the source; they are usually repeats but may differ in a detail not shown here. Identical values can stand only once. Like-named read-outs stand apart in the source and are kept apart here.
# How the values were obtained:
# DNA polymerase α [1] = target: T1, DNA polymerase α (Bos taurus, UniProt A0AAA9TD94); experiment: DNA polymerase assay, pol. α; assay type: biochemical, calf; conditions: for MIC Pol. α: Minimum inhibitory concentration: dose that resulted in inhibition of 80% or more of the activity; for MIC Pol. α / IC50: Table I; for IC50: 50%-inhibitory concentration; for Relative activity: Pol. α, Table III
# T1 sequence (A0AAA9TD94 1-1441): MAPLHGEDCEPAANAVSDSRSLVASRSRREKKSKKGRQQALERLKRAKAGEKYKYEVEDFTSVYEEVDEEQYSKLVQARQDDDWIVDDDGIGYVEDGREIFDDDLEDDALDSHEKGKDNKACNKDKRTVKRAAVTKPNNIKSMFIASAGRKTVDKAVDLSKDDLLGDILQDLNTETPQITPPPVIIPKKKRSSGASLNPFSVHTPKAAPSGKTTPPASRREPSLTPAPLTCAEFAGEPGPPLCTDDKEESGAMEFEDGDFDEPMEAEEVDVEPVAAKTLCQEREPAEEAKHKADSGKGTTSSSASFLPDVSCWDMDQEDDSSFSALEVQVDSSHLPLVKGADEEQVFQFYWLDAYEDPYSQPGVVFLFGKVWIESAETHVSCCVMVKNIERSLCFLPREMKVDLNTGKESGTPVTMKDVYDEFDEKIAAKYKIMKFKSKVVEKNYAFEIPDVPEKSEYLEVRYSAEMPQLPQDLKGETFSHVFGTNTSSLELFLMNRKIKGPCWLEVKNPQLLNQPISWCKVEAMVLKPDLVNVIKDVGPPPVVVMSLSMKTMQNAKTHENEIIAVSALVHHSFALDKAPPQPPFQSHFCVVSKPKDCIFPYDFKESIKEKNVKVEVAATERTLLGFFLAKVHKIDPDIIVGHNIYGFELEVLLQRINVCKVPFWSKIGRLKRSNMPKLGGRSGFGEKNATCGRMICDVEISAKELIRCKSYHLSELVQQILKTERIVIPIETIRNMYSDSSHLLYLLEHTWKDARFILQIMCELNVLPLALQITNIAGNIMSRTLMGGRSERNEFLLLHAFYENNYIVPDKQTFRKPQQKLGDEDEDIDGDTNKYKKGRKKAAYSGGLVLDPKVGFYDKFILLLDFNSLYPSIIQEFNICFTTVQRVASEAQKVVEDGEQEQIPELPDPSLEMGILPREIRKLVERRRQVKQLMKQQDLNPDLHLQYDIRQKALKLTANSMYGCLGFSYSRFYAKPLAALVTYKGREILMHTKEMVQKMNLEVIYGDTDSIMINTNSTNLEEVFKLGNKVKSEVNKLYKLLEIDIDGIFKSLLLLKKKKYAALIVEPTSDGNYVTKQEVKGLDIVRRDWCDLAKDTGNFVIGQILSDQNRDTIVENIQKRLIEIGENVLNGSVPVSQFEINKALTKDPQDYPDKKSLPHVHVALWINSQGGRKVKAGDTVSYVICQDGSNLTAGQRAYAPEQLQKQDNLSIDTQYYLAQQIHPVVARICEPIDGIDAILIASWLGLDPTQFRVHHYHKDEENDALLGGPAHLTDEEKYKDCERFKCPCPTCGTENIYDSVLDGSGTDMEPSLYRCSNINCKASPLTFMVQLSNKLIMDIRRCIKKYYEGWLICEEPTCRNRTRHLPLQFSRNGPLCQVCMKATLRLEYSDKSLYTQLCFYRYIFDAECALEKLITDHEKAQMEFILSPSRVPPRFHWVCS
# DNA polymerase β [2] = target: T2, DNA polymerase β (Rattus norvegicus, UniProt P06766); experiment: DNA polymerase assay, pol. β; assay type: biochemical; conditions: for MIC Pol. β: Minimum inhibitory concentration: dose that resulted in inhibition of 80% or more of the activity; for Relative activity: Pol. β, Table III
# [3] = target: HIV-1 reverse transcriptase (Human immunodeficiency virus type 1 group M subtype B, UniProt P03366); experiment: HIV-1 reverse transcriptase activity assay; assay type: biochemical; conditions: 20 µM compound, 0.05 units enzyme; Fig. 3
# [4] = target: Bovine pancreas deoxyribonuclease I (Bos taurus, UniProt P00639); experiment: Deoxyribonuclease I activity assay; assay type: biochemical; conditions: 20 µM compound, 0.05 units enzyme; Fig. 3
# E. coli DNA polymerase I = E. coli DNA polymerase I (Escherichia coli, UniProt P00582); experiment: E. coli DNA polymerase I activity assay; assay type: biochemical; conditions: 20 µM compound, 0.05 units enzyme; Fig. 3
# Taq DNA polymerase = Taq DNA polymerase (Thermus aquaticus, UniProt P19821); experiment: Taq DNA polymerase activity assay; assay type: biochemical; conditions: 20 µM compound, 0.05 units enzyme; Fig. 3
# DNA polymerase β [5] = target: T2, DNA polymerase β; experiment: Kinetic analysis of pol. β inhibition; assay type: biochemical; conditions: for Inhibitory mode: from Lineweaver Burk plot
# T4 DNA polymerase = target: T3, T4 DNA polymerase (Enterobacteria phage T4, UniProt P04415); experiment: T4 DNA polymerase activity assay; assay type: biochemical; conditions: 20 µM compound, 0.05 units enzyme; Fig. 3
# T3 sequence (P04415 1-898): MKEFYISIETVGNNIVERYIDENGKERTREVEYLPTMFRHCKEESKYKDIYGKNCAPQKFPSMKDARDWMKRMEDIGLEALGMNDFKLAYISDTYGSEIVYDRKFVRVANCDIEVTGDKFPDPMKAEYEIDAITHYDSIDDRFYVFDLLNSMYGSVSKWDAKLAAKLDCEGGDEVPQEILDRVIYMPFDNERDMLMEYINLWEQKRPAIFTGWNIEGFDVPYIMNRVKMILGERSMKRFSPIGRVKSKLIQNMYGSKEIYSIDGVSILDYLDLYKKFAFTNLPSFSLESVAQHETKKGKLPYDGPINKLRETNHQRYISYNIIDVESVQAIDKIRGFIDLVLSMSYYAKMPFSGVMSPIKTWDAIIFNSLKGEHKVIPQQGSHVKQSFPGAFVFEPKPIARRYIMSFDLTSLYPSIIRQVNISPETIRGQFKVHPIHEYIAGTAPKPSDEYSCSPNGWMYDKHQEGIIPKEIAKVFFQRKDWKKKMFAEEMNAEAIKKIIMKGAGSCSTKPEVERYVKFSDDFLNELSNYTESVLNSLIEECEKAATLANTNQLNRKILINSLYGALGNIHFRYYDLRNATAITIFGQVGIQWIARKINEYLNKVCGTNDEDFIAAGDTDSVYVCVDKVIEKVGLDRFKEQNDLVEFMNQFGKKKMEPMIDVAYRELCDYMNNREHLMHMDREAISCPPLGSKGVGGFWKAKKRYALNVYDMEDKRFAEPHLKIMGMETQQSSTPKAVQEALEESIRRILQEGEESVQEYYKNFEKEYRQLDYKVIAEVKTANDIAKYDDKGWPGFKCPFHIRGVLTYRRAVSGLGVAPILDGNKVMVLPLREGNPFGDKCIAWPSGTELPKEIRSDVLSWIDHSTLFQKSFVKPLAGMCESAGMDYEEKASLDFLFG
# calf thymus TdT = calf thymus TdT (Bos taurus, UniProt P06526); experiment: TdT activity assay; assay type: biochemical; conditions: 20 µM compound, 0.05 units enzyme; Fig. 3
# DNA polymerase α [6] = target: T1, DNA polymerase α; experiment: Kinetic analysis of pol. α inhibition; assay type: biochemical, calf; conditions: for Inhibitory mode: from Lineweaver Burk plot
# T4 polynucleotide kinase = T4 polynucleotide kinase (Enterobacteria phage T4, UniProt P06855); conditions: 20 µM compound, 0.05 units enzyme; Fig. 3
# T7 RNA polymerase = T7 RNA polymerase (Escherichia phage T7, UniProt P00573); conditions: 20 µM compound, 0.05 units enzyme; Fig. 3
# [7] = read-out: IC50 Pol. β, 50%-inhibitory concentration, Table I
# [8] = nucleotide substrate dTTP, from Dixon plot
# [9] = template-primer poly(dA)/oligo(dT)12-18, from Dixon plot
# [10] = versus nucleotide substrate dTTP
# calf thymus TdT, sequence (P06526 whole entry): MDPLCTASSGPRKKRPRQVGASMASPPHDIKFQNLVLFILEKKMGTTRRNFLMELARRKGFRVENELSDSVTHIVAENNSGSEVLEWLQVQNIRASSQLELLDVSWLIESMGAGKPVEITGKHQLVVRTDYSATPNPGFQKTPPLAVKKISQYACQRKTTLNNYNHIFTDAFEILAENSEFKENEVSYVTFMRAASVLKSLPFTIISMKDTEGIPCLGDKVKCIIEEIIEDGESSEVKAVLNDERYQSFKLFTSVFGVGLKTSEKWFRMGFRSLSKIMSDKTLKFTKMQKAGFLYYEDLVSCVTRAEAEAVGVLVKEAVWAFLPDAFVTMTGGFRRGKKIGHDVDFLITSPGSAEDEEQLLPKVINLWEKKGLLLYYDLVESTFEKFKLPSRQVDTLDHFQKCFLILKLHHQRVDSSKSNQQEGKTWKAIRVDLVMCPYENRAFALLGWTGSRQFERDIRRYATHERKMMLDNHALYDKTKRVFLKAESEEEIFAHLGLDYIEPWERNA
# E. coli DNA polymerase I, sequence (P00582 whole entry): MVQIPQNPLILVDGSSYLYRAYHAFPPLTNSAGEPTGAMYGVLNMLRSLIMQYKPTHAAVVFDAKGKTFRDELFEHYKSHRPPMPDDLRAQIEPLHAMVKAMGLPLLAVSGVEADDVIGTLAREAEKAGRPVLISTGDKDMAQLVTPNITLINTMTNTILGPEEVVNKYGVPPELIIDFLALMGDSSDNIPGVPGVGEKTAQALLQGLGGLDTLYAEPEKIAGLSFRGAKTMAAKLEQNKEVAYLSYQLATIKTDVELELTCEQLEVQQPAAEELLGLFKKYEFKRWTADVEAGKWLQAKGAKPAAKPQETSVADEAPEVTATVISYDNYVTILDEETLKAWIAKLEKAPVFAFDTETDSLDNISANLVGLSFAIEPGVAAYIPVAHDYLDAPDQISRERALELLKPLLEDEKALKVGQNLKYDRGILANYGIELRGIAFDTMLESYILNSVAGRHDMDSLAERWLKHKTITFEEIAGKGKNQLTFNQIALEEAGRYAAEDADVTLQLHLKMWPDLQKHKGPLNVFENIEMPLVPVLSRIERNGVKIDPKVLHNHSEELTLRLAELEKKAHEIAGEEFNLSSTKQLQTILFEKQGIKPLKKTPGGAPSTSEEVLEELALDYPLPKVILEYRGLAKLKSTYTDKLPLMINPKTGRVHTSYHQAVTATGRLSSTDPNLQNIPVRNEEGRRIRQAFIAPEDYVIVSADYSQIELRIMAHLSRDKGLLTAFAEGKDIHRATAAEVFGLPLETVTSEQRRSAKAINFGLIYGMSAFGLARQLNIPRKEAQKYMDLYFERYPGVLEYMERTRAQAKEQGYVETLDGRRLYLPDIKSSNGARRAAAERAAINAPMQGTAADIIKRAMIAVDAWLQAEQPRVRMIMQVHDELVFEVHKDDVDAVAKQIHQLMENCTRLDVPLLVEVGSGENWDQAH
# T4 polynucleotide kinase, sequence (P06855 whole entry): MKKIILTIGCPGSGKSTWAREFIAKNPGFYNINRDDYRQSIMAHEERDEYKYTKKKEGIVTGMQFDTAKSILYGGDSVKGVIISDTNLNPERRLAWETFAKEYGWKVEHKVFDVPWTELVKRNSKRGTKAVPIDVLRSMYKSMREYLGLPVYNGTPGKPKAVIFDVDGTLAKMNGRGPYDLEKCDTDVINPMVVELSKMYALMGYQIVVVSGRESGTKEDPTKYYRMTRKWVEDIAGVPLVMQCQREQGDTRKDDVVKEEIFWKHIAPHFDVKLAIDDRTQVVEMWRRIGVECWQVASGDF
# T7 RNA polymerase, sequence (P00573 whole entry): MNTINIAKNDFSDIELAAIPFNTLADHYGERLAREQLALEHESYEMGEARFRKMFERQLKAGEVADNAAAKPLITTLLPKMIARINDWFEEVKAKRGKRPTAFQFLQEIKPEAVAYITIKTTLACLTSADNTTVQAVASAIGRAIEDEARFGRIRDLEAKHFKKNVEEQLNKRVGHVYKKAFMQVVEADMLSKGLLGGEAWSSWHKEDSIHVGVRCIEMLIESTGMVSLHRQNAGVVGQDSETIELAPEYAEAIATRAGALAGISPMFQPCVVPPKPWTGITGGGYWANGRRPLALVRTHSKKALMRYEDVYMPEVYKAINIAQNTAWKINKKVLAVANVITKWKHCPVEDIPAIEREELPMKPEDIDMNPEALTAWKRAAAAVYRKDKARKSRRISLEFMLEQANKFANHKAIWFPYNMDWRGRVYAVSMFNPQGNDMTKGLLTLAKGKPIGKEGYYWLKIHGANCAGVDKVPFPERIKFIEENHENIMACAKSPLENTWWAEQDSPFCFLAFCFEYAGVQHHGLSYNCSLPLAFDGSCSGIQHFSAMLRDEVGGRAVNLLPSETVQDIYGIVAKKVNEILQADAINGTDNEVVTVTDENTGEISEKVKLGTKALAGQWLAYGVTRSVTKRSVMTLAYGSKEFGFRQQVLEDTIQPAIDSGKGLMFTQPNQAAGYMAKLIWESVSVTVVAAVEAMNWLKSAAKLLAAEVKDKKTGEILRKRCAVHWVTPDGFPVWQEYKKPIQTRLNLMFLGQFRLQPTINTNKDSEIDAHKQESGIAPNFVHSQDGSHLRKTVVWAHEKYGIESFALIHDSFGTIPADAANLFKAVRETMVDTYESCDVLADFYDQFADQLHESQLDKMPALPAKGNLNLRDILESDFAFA
# Bovine pancreas deoxyribonuclease I, sequence (P00639 23-282): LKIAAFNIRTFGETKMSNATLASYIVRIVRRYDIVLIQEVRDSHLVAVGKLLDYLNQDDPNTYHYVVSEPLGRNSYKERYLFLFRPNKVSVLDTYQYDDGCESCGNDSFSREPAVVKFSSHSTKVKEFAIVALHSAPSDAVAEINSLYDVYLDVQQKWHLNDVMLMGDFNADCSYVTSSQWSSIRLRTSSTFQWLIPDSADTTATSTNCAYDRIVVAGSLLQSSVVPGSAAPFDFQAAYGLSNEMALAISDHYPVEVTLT
# Taq DNA polymerase, sequence (P19821 whole entry): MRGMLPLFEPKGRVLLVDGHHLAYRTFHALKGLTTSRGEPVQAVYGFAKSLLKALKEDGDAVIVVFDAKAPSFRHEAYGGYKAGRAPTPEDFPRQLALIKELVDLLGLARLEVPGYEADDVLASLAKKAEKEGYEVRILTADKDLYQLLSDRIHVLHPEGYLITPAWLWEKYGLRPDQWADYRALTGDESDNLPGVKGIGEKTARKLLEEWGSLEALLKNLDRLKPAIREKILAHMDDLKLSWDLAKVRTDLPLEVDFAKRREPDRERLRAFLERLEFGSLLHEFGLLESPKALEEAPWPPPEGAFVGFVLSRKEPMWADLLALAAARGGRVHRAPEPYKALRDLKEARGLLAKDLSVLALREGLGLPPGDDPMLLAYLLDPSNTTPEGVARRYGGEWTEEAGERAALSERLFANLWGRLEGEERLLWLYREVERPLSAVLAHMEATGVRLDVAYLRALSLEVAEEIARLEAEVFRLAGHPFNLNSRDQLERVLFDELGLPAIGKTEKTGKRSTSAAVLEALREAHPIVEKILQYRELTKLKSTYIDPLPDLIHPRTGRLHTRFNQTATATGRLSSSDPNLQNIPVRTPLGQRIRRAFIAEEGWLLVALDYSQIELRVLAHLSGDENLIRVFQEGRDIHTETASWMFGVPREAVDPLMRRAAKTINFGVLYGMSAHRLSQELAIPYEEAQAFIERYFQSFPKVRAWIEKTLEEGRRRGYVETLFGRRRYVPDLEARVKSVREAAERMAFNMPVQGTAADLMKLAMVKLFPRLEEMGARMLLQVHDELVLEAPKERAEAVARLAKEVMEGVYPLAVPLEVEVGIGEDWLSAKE
structure (smiles),measurement,setting,value
CCCCCCCCCCCCCC(=O)OC[C@H](CO[C@H]1O[C@H](CS(=O)(=O)O)[C@@H](O)[C@H](O)[C@H]1O)OC(=O)CCCCCCCCCCCCC [C14--SQDG],MIC Pol. α,DNA polymerase α [1],5.3 µM and 5.2 µM
same,IC50,DNA polymerase α [1]; read-out: IC50 Pol. α,1.8 µM and 1.9 µM
same,MIC Pol. β,DNA polymerase β [2]; Table I,37 µM and 40 µM
same,IC50,DNA polymerase β [2]; [7],23 µM and 20 µM
CCCCCCCCCCCCCCCCCC(=O)OC[C@H](CO[C@H]1O[C@H](CS(=O)(=O)O)[C@@H](O)[C@H](O)[C@H]1O)OC(=O)CCCCCCCCCCCCCCCCC [C18--SQDG],Effect on HIV-1 reverse transcriptase activity,[3],moderate inhibitory effect
same,Effect on deoxyribonuclease I activity,[4],hardly affected
same,Effect on E. coli DNA polymerase I activity,E. coli DNA polymerase I,hardly affected
same,Effect on Taq DNA polymerase activity,Taq DNA polymerase,hardly affected
same,Ki,DNA polymerase β [5]; [8],36 µM
same,Vmax,"DNA polymerase β [5]; nucleotide substrate dTTP, one value printed for all sulfolipid conc.",38 pmol/h
same,Ki,DNA polymerase β [5]; [9],5 µM
same,Inhibitory mode,DNA polymerase β [5]; [10],Competitive
same,Inhibitory mode,DNA polymerase β [5]; versus template-primer,Competitive
same,Effect on T4 DNA polymerase activity,T4 DNA polymerase,hardly affected
same,Effect on TdT activity,calf thymus TdT,inhibited
same,MIC Pol. α,DNA polymerase α [1],1.1 µM and 1.2 µM
same,Relative activity,DNA polymerase α [1]; 2 µM compound + 40 µM poly(rC),12%
same,Relative activity,DNA polymerase α [1]; 2 µM compound + 0.05% NP-40,15%
same,Relative activity,DNA polymerase α [1]; 2 µM compound + 80 g/ml BSA,16%
same,Relative activity,DNA polymerase α [1]; 2 µM compound alone,10%
same,IC50,DNA polymerase α [1]; read-out: IC50 Pol. α,0.4 µM
same,Ki,DNA polymerase α [6]; [8],0.6 µM
same,Vmax,"DNA polymerase α [6]; nucleotide substrate dTTP, sulfolipid conc. 0.2",170 pmol/h
same,Vmax,"DNA polymerase α [6]; nucleotide substrate dTTP, sulfolipid conc. 0.4",100 pmol/h
same,Vmax,"DNA polymerase α [6]; nucleotide substrate dTTP, sulfolipid conc. 0.6",56 pmol/h
same,Ki,DNA polymerase α [6]; [9],0.2 µM
same,Vmax,"DNA polymerase α [6]; template-primer, sulfolipid conc. 0.2",100 pmol/h
same,Vmax,"DNA polymerase α [6]; template-primer, sulfolipid conc. 0.4",56 pmol/h
same,Vmax,"DNA polymerase α [6]; template-primer, sulfolipid conc. 0.6",40 pmol/h
same,Inhibitory mode,DNA polymerase α [6]; [10],Non-competitive
same,Inhibitory mode,DNA polymerase α [6]; versus template-primer,Non-competitive
same,Effect on T4 polynucleotide kinase activity,T4 polynucleotide kinase,hardly affected
same,MIC Pol. β,DNA polymerase β [2]; Table I,60 µM and 62 µM
same,Relative activity,DNA polymerase β [2]; 20 µM compound + 40 µM poly(rC),59%
same,Relative activity,DNA polymerase β [2]; 20 µM compound + 0.05% NP-40,101%
same,Relative activity,DNA polymerase β [2]; 20 µM compound + 80 g/ml BSA,63%
same,Relative activity,DNA polymerase β [2]; 20 µM compound alone,65%
same,IC50,DNA polymerase β [2]; [7],37 µM and 43 µM
same,Effect on T7 RNA polymerase activity,T7 RNA polymerase,hardly affected
CCCCCCCCCCCCCC(=O)OCC(CO)OC(=O)CCCCCCCCCCCCC (stereo not shown),MIC Pol. α,DNA polymerase α [1],> 1000 µM
same,IC50,DNA polymerase α [1]; read-out: IC50 Pol. α,550 µM
same,IC50,DNA polymerase β [2]; [7],> 1000 µM
O=S(=O)(O)C[C@H]1O[C@H](OCC(O)CO)[C@H](O)[C@@H](O)[C@@H]1O (stereo partly shown) [I&II&III + Quinovose + -],IC50,DNA polymerase α [1]; read-out: IC50 Pol. α,> 1000 µM
same,IC50,DNA polymerase β [2]; [7],> 1000 µM
"C[C@H]1OC(O)[C@H](O)[C@@H](O)[C@@H]1O (stereo partly shown) [II - Quinovose - -, Quinovose]",IC50,DNA polymerase α [1]; IC50 Pol. α,> 1000 µM
same,IC50,DNA polymerase β [2],> 1000 µM
C[C@@H]1OC(OCC(O)CO)[C@@H](O)[C@H](O)[C@@H]1O (stereo partly shown) [II&III - Fucose + -],IC50,DNA polymerase α [1]; read-out: IC50 Pol. α,> 1000 µM
same,IC50,DNA polymerase β [2]; [7],> 1000 µM
CCCCCCCCCCCCCCCC(=O)OC[C@H](CO[C@H]1O[C@H](CS(=O)(=O)O)[C@@H](O)[C@H](O)[C@H]1O)OC(=O)CCCCCCCCCCCCCCC [C16--SQDG],MIC Pol. α,DNA polymerase α [1],3.4 µM and 3.6 µM
same,MIC Pol. β,DNA polymerase β [2]; Table I,45 µM and 46 µM
same,IC50,DNA polymerase β [2]; [7],25 µM
"CCCCCCCCCCCCCCCCCC(=O)O [Stearic acid (18:0), Stearic acid, reference compound]",IC50,DNA polymerase α [1]; IC50 Pol. α,12 µM and 8 µM
same,MIC Pol. α,DNA polymerase α [1],35 µM
same,IC50,DNA polymerase β [2],130 µM
same,MIC Pol. β,DNA polymerase β [2]; Table I,250 µM
CCCCCCCCCCCCCCCCCC(=O)OCC(O)CO (stereo not shown) [III&IV - - + Stearic acid (18:0)/H],MIC Pol. α,DNA polymerase α [1],> 1000 µM
same,IC50,DNA polymerase α [1]; read-out: IC50 Pol. α,650 µM
same,IC50,DNA polymerase β [2]; [7],> 1000 µM
